What was measured:
[1] = tested on: Brain microsomal fractions; assay: in vitro Anti-lipid peroxidation effect (TBAR production, Fe3+-ADP/NADPH); format: biochemical, rat (SD strain, male)
Method: 1. in vitro Anti-lipid peroxidation effect
Brain microsomal fractions were prepared from male rats of SD strain, and a portion (0.2 mg protein) was incubated at 37° C. for 15 minutes with a mixture of Fe^3+ (0.1 mM)--ADP (0.5 mM) in the presence or absence of the test compound, in final volume of 1 ml of 10 mM HEPES, 150 mM KCl, 0.2 mM NADPH, pH 7.4. After incubation, 1.5 ml of TCA-TBA-HCl reagent (16.7% trichloroacetic acid, 0.4% thiobarbituric acid, 0.278N hydrochloric acid) was added and the reaction mixture was heated in a boiling water for 15 minutes. After cooling in ice-bath, the reaction mixture was centrifuged, and the absorbance of the supernatant at 535 nm was measured. The amount of thiobarbituric acid reactive substance (TBAR) was obtained by calculation using an extinction coefficient of 1.56×10^5 […]. […] The results are shown in Table 1A for compounds of the formulas IA, IB, and IC, respectively. The compounds with highest inhibition rate have the greatest anti-lipid peroxidation effect.

[2] = tested on: pig right coronary artery; assay: in vitro Ca-antagonism (high K+ induced 45Ca-influx); format: cell-based; conditions: Sus scrofa, K+ 75 mM
Method: 2. in vitro Ca-antagonism
A strip of pig right coronary artery was depolarized with high K^+ (75 mM) for 30 minutes to induce voltage dependent ^45 Ca-influx. The extracellular ^45 Ca was chelated by adding EGTA and removed by washing, then the strip was lysed at 100° C. ^45 Ca in this lysate was measured as intracellular ^45 Ca by a scintillation counter. The concentration of the test compound was 10^-7, 10^-6, 10^-5 M, and applied until depolarization by K^+ was completed. Ratio of inhibition at various concentrations of the test compounds for increasing the intracellular ^45 Ca by K^+ was determined. The compound with high inhibition ratio has strong Ca-antagonism.

Row | SMILES | Anti-Lipid Peroxidation (% inhibition) 10 μM [1] [%] | Anti-Lipid Peroxidation (% inhibition) 50 μM [1] [%] | inhibition at 10 µM [2] [%]
1 | COCCNc1cc(C(C)C)ccc(CN2CCN(C(c3ccc(F)cc3)c3ccc(F)cc3)CC2)c1=O [Compound 14C, 7-[4-(4,4'-difluorobenzhydryl)piperazino-1-methyl]-4-isopropyl-2-(N-2-methoxyethylamino)-2,4,6-cycloheptatrien-1-one] | 27.0 | 90.4 | 71
2 | COc1cc(C(C)C)ccc(CN2CCN(C(c3ccc(F)cc3)c3ccc(F)cc3)CC2C)c1=O (stereo not drawn) [Compound 22C, 7-[4-(4,4'-difluorobenzhydryl)-2-methylpiperazino-1-methyl]-4-isopropyl-2-methoxy-2,4,6-cycloheptatrien-1-one] | 32.8 | 88.7 | 66
3 | CC(C)c1ccc(C2Sc3ccccc3N2CCc2ccccc2)c(=O)c(NCCN(C)C)c1 (stereo not drawn) [Compound 16B] | 91.2 | 95.1 | –
4 | COc1cc(C(C)C)ccc(CN2CCN(C(c3ccccc3)c3ccc(C(F)(F)F)cc3)CC2)c1=O (stereo not drawn) [Compound 9A, 4-isopropyl-2-methoxy-7-[4-(4-trifluoromethylbenzhydryl)piperazino-1-methyl]-2,4,6-cycloheptatrien-1-one] | 29.2 | 88.1 | 45
5 | COc1cc(C(C)C)ccc(C2Sc3ccccc3N2Cc2ccccn2)c1=O (stereo not drawn) [Compound 4B, 2-(2'-oxo-3'-methoxy-5'-isopropyl-3',5',7'-cycloheptatrienyl)-3-(2-picolyl)benzothiazoline] | 95.7 | 99.3 | –
6 | COc1cc(C(C)C)ccc(C(c2ccccc2)N2CCN(C(c3ccccc3)c3ccc(Cl)cc3)CC2)c1=O (stereo not drawn) [Compound 3A, 7-{1-[4-(4-chlorobenzhydryl)piperazinomethyl]-α-phenyl}-4-isopropyl-2-methoxy-2,4,6-cycloheptatrien-1-one] | 13.8 | 16.3 | 0
7 | CC(C)c1ccc(CN2CCN(C(c3ccc(F)cc3)c3ccc(F)cc3)CC2)c(=O)c(NCc2ccccn2)c1 [Compound 12C, 7-[4-(4,4'-difluorobenzhydryl)piperazino-1-methyl]-4-isopropyl-2-(N-2-pyridylmethylamino)-2,4,6-cycloheptatrien-1-one] | 86.4 | 89.3 | 47
8 | CC(C)c1ccc(CN2CCN(C(c3ccc(F)cc3)c3ccc(F)cc3)CC2)c(=O)c(NCCNCCN)c1 [Compound 8C, 2-[N-2-(N'-2-aminoethylamino)ethylamino]-7-[4-(4,4'-difluorobenzhydryl)piperazino-1-methyl]-4-isopropyl-2,4,6-cycloheptatrien-1-one] | 33.1 | 92.2 | 60
9 | COc1cc(C(C)C)ccc(C2Sc3ccccc3N2Cc2ccc3ccccc3n2)c1=O (stereo not drawn) [Compound 9B, 2-(2'-oxo-3'-methoxy-5'-isopropyl-3',5',7'-cycloheptatrienyl)-3-(2-quinolyl)methylbenzothiazoline] | 94.9 | 96.6 | –
10 | CCCCC(c1ccc(C(C)C)cc(OC)c1=O)N1CCN(C(c2ccccc2)c2ccc(Cl)cc2)CC1 (stereo not drawn) [Compound 5A] | 30.5 | 38.7 | 19
11 | CCOc1cc(C(C)C)ccc(CN2CCN(C(c3ccc(F)cc3)c3ccc(F)cc3)CC2)c1=O [Compound 12A, 7-[4-(4,4'-difluorobenzhydryl)piperazino-1-methyl]-2-ethoxy-4-isopropyl-2,4,6-cycloheptatrien-1-one] | 21.4 | 50.4 | 72
12 | COc1cc(C(C)C)ccc(C2Sc3ccccc3N2Cc2cccnc2)c1=O (stereo not drawn) [Compound 5B, 2-(2'-oxo-3'-methoxy-5'-isopropyl-3',5',7'-cycloheptatrienyl)-3-(3-picolyl)benzothiazoline] | 95.9 | 100 | –
13 | CCN(CC)CCNc1cc(C(C)C)ccc(CN2CCN(C(c3ccc(F)cc3)c3ccc(F)cc3)CC2)c1=O [Compound 7C, 2-(N-2-diethylaminoethylamino)-7-[4-(4,4'-difluorobenzhydryl)piperazino-1-methyl]-4-isopropyl-2,4,6-cycloheptatrien-1-one] | 21.3 | 90.4 | 67
14 | CC(C)c1ccc(CN2CCN(C(c3ccc(F)cc3)c3ccc(F)cc3)CC2)c(=O)c(N2CCCCC2)c1 [Compound 17C, 7-[4-(4,4'-difluorobenzhydryl)piperazino-1-methyl]-4-isopropyl-2-piperidino-2,4,6-cycloheptatrien-1-one] | 32.4 | 44.1 | 53
15 | CCN(CCN(C)C)c1cc(C(C)C)ccc(CN2CCN(C(c3ccc(F)cc3)c3ccc(F)cc3)CC2)c1=O [Compound 6C, 7-[4-(4,4'-difluorobenzhydryl)piperazino-1-methyl]-2-(N-2-dimethylaminoethyl-N-ethylamino)-4-isopropyl-2,4,6-cycloheptatrien-1-one] | 35.9 | 91.5 | 87
16 | CC(C)c1ccc(C2Sc3ccccc3N2CCc2ccccc2)c(=O)c(N2CCNCC2)c1 (stereo not drawn) [Compound 15B, 2-[2'-oxo-3'-(1-piperazinyl)-5'-isopropyl-3',5',7'-cycloheptatrienyl]-3-phenethylbenzothiazoline] | 93.0 | 94.4 | –
17 | COc1cc(C(C)C)ccc(C2Sc3ccccc3N2CCc2ccccn2)c1=O (stereo not drawn) [Compound 7B, 2-(2'-oxo-3'-methoxy-5'-isopropyl-3',5',7'-cycloheptatrienyl)-3-[2-(2-pyridyl)ethyl]benzothiazoline] | 91.9 | 94.3 | –
18 | COc1cc(C(C)C)ccc(C2Sc3ccccc3N2CCCN2CCN(C(c3ccc(F)cc3)c3ccc(F)cc3)CC2)c1=O (stereo not drawn) [Compound 13B, 2-(2'-oxo-3'-methoxy-5'-isopropyl-3',5',7'-cycloheptatrienyl)-3-{3-[4-(4',4'-difluorobenzhydryl)piperazin-1-yl)propyl}benzothiazoline] | 91.8 | 94.4 | –
19 | COc1ccc(CCN2c3ccccc3SC2c2ccc(C(C)C)cc(OC)c2=O)cc1OC (stereo not drawn) [Compound 8B, 2-(2'-oxo-3'-methoxy-5'-isopropyl-3',5',7'-cycloheptatrienyl)-3-[2-(3,4-dimethoxyphenyl)ethyl]benzothiazoline] | 93.4 | 93.8 | –
20 | CC(C)c1ccc(CN2CCN(C(c3ccc(F)cc3)c3ccc(F)cc3)CC2)c(=O)c(OCCCN(C)CCc2ccccc2)c1 [Compound 18A, 7-[4-(4,4'-difluorobenzhydryl)piperazino-1-methyl]-2-[3-(N-methyl-N-phenethylamino)propoxy]-4-isopropyl-2,4,6-cycloheptatrien-1-one] | 37.0 | 93.1 | –
